According to the NIST ThermoML archive (doi:10.1021/acs.jced.8b00250):
± gives the expanded uncertainty stated by the source.

Experiment: mn = molality of the nth substance listed, in mol/kg
Details: 298.15 K, 101.3 kPa, Liquid, Alternating current cell with electrodes

Structure (SMILES): CCCCC(CC)COC(=O)CC(C(=O)OCC(CC)CCCC)S(=O)(=O)[O-].[Na+] (stereo unspecified) [sodium bis(2-ethylhexyl) sulfosuccinate] + O
- electrical conductivity (m1 = 0.1687): 0.00147 ± 5.9e-05 S/m
- electrical conductivity (m1 = 0.5229): 0.00389 ± 0.00016 S/m
- electrical conductivity (m1 = 0.8008): 0.00578 ± 0.00023 S/m
- electrical conductivity (m1 = 1.108): 0.00786 ± 0.00031 S/m
- electrical conductivity (m1 = 1.374): 0.00965 ± 0.00039 S/m
- electrical conductivity (m1 = 1.663): 0.0116 ± 0.00046 S/m
- electrical conductivity (m1 = 2.015): 0.0139 ± 0.00056 S/m
- electrical conductivity (m1 = 2.327): 0.0161 ± 0.00065 S/m
- electrical conductivity (m1 = 2.661): 0.0184 ± 0.00074 S/m
- electrical conductivity (m1 = 3.026): 0.0213 ± 0.0009 S/m
- electrical conductivity (m1 = 3.398): 0.0239 ± 0.001 S/m
- electrical conductivity (m1 = 3.654): 0.0258 ± 0.001 S/m
- electrical conductivity (m1 = 3.95): 0.0279 ± 0.0011 S/m
- electrical conductivity (m1 = 4.202): 0.0296 ± 0.0012 S/m
- electrical conductivity (m1 = 4.434): 0.0313 ± 0.0013 S/m
- electrical conductivity (m1 = 4.65): 0.0328 ± 0.0013 S/m
- electrical conductivity (m1 = 4.896): 0.0345 ± 0.0014 S/m
- electrical conductivity (m1 = 5.165): 0.0363 ± 0.0015 S/m
- electrical conductivity (m1 = 5.513): 0.0387 ± 0.0015 S/m
- electrical conductivity (m1 = 5.782): 0.0405 ± 0.0016 S/m

Structure (SMILES): O [water] + CCCCC(CC)COC(=O)CC(C(=O)OCC(CC)CCCC)S(=O)(=O)[O-].[Na+]
- electrical conductivity (m2 = 0): 0.000327 ± 1.3e-05 S/m
